One assay addresses HSV-1 thymidine kinase (Human herpesvirus 1, UniProt P0DTH5). As to the kind of experiment: inhibition of HSV-1 thymidine kinase. It is filed as biochemical. To be noted: 3H-thymidine phosphorylation, 37° C., 30 minutes, pH 8; read-out: IC50 against HSV-1 thymidine kinase. As to the method: (§1) In this test procedure, the assay mixture contains 50 mmol Tris HCl, pH 8, 5 mmol magnesium chloride, 5 mmol ATP, 0.3 μmol ^3 H-thymidine (50 Ci/mmol), suitably diluted enzyme preparation and various concentrations of test compounds in a total volume of 100 μl. Assays are incubated at 37° C. for 30 minutes and the reaction is terminated by immersion in a boiling water bath for 2 minutes. 85 μl aliquots from each assay are then dried on to DEAE-cellulose paper discs and the unphosphorylated ^3 H-thymidine is removed by washing in 4 mmol ammonium formate. The radioactivity remaining bound to the discs is then measured by scintillation spectrophotometry. The degree of inhibition at each concentration of test compound is expressed as a percentage of the control reaction (100%) after subtracting a measured blank value which represents the amount of radioactivity bound to the disc from a reaction containing heat-inactivated enzymes. The IC50 value, namely the concentration of test compound which inhibits enzyme activity by 50%, is then calculated.

For the next assay, the target named is HSV-2 thymidine kinase (Human herpesvirus 2, UniProt P04407). As to the kind of experiment: inhibition of HSV-2 thymidine kinase. It is filed as biochemical. The note with it: 3H-thymidine phosphorylation, 37° C., 30 minutes, pH 8; read-out: IC50 against HSV-2 thymidine kinase. Here is the method: as §1
HSV-2 thymidine kinase, sequence (P04407 whole entry): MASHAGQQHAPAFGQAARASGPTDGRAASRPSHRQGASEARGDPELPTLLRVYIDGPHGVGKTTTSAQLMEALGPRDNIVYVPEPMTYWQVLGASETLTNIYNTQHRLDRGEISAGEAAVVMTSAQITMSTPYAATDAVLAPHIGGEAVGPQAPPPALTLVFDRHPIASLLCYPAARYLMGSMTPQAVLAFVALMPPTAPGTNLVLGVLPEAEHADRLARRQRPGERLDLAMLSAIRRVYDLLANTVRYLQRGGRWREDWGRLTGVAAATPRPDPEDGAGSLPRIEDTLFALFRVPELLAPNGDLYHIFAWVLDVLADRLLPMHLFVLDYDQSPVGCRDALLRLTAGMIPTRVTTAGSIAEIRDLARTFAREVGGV

Structures can show the parent of a compound that is named as a salt.

HSV-1 thymidine kinase, sequence (P0DTH5 whole entry): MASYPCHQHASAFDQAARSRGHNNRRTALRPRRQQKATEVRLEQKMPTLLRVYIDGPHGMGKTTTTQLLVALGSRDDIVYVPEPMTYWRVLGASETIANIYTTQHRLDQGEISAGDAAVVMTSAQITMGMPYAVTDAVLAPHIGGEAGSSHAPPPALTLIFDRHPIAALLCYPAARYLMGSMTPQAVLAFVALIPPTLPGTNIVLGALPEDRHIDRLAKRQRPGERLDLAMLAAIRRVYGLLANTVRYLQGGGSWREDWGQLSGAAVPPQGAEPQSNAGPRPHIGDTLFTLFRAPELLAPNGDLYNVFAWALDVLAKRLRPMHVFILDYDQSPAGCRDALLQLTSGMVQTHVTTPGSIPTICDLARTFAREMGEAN

With `CCc1cn([C@@H]2O[C@H](CNC(=O)[C@H](C)Oc3cc(OC)c(Cl)cc3Cl)[C@@H](OC(=O)[C@@H](N)C(C)C)[C@@H]2F)c(=O)[nH]c1=O` [Example 1, 1-[5-[2(S)-(2,4-dichloro-5-methoxyphenoxy)propionamido]-1,5-dideoxy-2-fluoro-3-O-L-valyl-β-D-arabinofuranosyl]-5-ethyluracil hydrochloride], the IC50 at HSV-1 thymidine kinase worked out at 18 nM; at HSV-2 thymidine kinase it was 1.1 nM.

What is called IC50 is the midpoint of a concentration-inhibition curve.
